Usually IC50 stands for the point on the concentration scale where inhibition reaches its midpoint. As usually defined, the Kd is the constant that tells how readily two partners part at equilibrium.

This passage reports IC50 and Kd results from US20220324835A1 (Nurix Therapeutics, Inc., priority 2018, published 2022).

Molecules are shown by their SMILES. Where only a bound is given, the exact number is not on record here.

Assay [1] concerns the target T1, Cbl-b (Homo sapiens, UniProt Q13191). The assay is described as follows: Cbl-b inhibition assay (Cbl-b activity assay, FRET, Biological Example 1; 100 mM NaCl, 60 nM Src kinase). The assay is classed as biochemical. Conditions: upper bound stated in text lists; read-out: IC50 values in the Cbl-b inhibition assay of Biological Example 1. The essentials:
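Binding-based Cbl-b activity assay. Src-phosphorylated, N-terminally biotin-Avi-tagged Cbl-b recruits labelled UbcH5B-Ub, and proximity to streptavidin-terbium yields FRET.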

Assay [2] addresses T1, Cbl-b. Kind of assay: Cbl-b activity assay (Cbl-b inhibition assay), TR-FRET of Cbl-b interaction with UbcH5B-Ub. Format: biochemical. The note with it: assay buffer with 100 mM NaCl, 60 nM Src kinase; read-out: Cbl-b activity IC50. The essentials: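 UbcH5B (C85K) conjugated to N-terminally Bodipy-Fluorescein-labeled ubiquitin served as the fluorescent partner. After compound preincubation, Src kinase (60 nM) with 1 mM ATP and 5 mM MgCl2 (final) was added for 1.5 h, followed by a further 1 h incubation. Some values were obtained with 50 mM NaCl and 30 nM Src.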
On the technique in general: TR-FRET usually uses a lanthanide donor and a delayed reading to cut background.

The next assay concerns the target Cbl-b (residues 36-427) (Homo sapiens, UniProt Q13191). Kind of assay: Cbl-b binding assay (SPR, Biacore T200). The note with it: 20° C., 1:1 binding model. The essentials:
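Steps: capture protein on NeutrAvidin surface; inject compound dilutions (8 or 10 points from 100 or 50 μM) 50 s; allow 90-180 s dissociation; regenerate 20 s with 0.3 M NaCl. Runs at 20° C in HEPES pH 7.5/100 mM NaCl/2% DMSO; 1:1 fitting.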
For orientation: SPR reads the build-up and loss of mass on a sensor chip optically.

T1 sequence (Q13191 36-427): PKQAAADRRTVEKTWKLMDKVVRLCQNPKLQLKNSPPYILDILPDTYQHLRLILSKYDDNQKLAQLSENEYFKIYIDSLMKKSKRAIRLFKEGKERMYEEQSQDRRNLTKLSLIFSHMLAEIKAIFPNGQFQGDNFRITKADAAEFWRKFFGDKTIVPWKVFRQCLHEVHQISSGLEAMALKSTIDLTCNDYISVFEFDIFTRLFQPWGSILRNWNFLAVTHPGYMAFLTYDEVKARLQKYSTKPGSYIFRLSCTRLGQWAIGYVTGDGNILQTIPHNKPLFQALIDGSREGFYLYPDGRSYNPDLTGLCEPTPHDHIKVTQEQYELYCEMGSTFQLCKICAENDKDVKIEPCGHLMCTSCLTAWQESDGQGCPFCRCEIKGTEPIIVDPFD
Sequence of Cbl-b (residues 36-427) (Q13191 36-427): as above

In the case of `C[C@H](Sc1nncn1C)c1cccc(NC(=O)c2cc(C(=O)N3C[C@@H](O)C[C@H]3C)ccn2)c1` [Compound 152, 4-((2R,4S)-4-hydroxy-2-methylpyrrolidine-1-carbonyl)-N-(3-((S)-1-((4-methyl-4H-1,2,4-triazol-3-yl)thio)ethyl)phenyl)picolinamide], the IC50 on Cbl-b [1] was no more than 10 µM; at Cbl-b [2] it was 3 to 10 µM. The dissociation constant Kd on Cbl-b (residues 36-427) lay in the range of 3 to 10 µM.
As to `C[C@H](Sc1nncn1C)c1cccc(NC(=O)c2cc(C(=O)N3C[C@H](O)C[C@H]3C)ccn2)c1` [Compound 153, 4-((2R,4R)-4-hydroxy-2-methylpyrrolidine-1-carbonyl)-N-(3-((S)-1-((4-methyl-4H-1,2,4-triazol-3-yl)thio)ethyl)phenyl)picolinamide], the IC50 on Cbl-b [1] is no more than 10 µM; at Cbl-b [2], 3 to 10 µM. On Cbl-b (residues 36-427), this molecule came in with a Kd greater than 10 µM.
Consider `C[C@H](Sc1nncn1C)c1cccc(NC(=O)c2cc(C(=O)N3C[C@@H](O)C[C@@H]3C)ccn2)c1` [Compound 154, 4-((2S,4S)-4-hydroxy-2-methylpyrrolidine-1-carbonyl)-N-(3-((S)-1-((4-methyl-4H-1,2,4-triazol-3-yl)thio)ethyl)phenyl)picolinamide], for which the IC50 at Cbl-b [1] is no more than 10 µM; on Cbl-b [2] it was 3 to 10 µM. The same molecule registered a Kd at Cbl-b (residues 36-427) greater than 10 µM.
For `C[C@H](Sc1nncn1C)c1cccc(NC(=O)c2cc(C(=O)N3C[C@H](O)[C@@H](O)C3)ccn2)c1` [Compound 155, 4-[[(3S,4S)-3,4-dihydroxypyrrolidin-1-yl]carbonyl]-N-[3-[(1S)-1-[(4-methyl-4H-1,2,4-triazol-3-yl)sulfanyl]ethyl]phenyl]pyridine-2-carboxamide], in that order: no more than 10 µM, 1 to 3 µM and 3 to 10 µM.
For `C[C@H](Sc1nncn1C)c1cccc(NC(=O)c2cc(C(=O)NC[C@@H](C)O)ccn2)c1` [Compound 156, N^4-((R)-2-hydroxypropyl)-N^2-(3-((S)-1-((4-methyl-4H-1,2,4-triazol-3-yl)thio)ethyl)phenyl)pyridine-2,4-dicarboxamide], in that order: no more than 10 µM, 3 to 10 µM and 3 to 10 µM.
Regarding `C[C@H](O)CNC(=O)c1ccnc(C(=O)Nc2cccc([C@H](C)Sc3nncn3C)c2)c1` [Compound 157, N^4-((S)-2-hydroxypropyl)-N^2-(3-((S)-1-((4-methyl-4H-1,2,4-triazol-3-yl)thio)ethyl)phenyl)pyridine-2,4-dicarboxamide], the IC50 at Cbl-b [1] was no more than 10 µM; on Cbl-b [2], 3 to 10 µM. In addition, on Cbl-b (residues 36-427), the Kd was 3 to 10 µM.
On to `C[C@H](Sc1nncn1C)c1cccc(NC(=O)c2cc(C(=O)N3CC[C@@H](N(C)C)C3)ccn2)c1` [Compound 159, 4-((R)-3-(dimethylamino)pyrrolidine-1-carbonyl)-N-(3-((S)-1-((4-methyl-4H-1,2,4-triazol-3-yl)thio)ethyl)phenyl)picolinamide], for which the half-maximal inhibitory concentration (IC50) was no more than 10 µM on Cbl-b [1] and 3 to 10 µM at Cbl-b [2]. Further, at Cbl-b (residues 36-427), the Kd lay in the range of 3 to 10 µM.
In the case of `C[C@H](Sc1nncn1C)c1cccc(NC(=O)c2cc(C(=O)N3CC[C@H](N(C)C)C3)ccn2)c1` [Compound 160, 4-((S)-3-(dimethylamino)pyrrolidine-1-carbonyl)-N-(3-((S)-1-((4-methyl-4H-1,2,4-triazol-3-yl)thio)ethyl)phenyl)picolinamide], the figures for the half-inhibitory concentration (IC50) at Cbl-b [1] and on Cbl-b [2] were no more than 10 µM and 3 to 10 µM, respectively. Moreover, at Cbl-b (residues 36-427), the Kd fell in the range of 3 to 10 µM.
With `C[C@@H](Sc1nncn1C)c1cccc(NC(=O)c2cc(C(=O)N3CC[C@H](O)C3)ccn2)c1` [Compound 161, 4-[[(3S)-3-hydroxypyrrolidin-1-yl]carbonyl]-N-[3-[(1R)-1-[(4-methyl-4H-1,2,4-triazol-3-yl)sulfanyl]ethyl]phenyl]pyridine-2-carboxamide], the IC50 is no more than 10 µM at Cbl-b [1] and 3 to 10 µM on Cbl-b [2]. Further, the dissociation constant (Kd) on Cbl-b (residues 36-427) was greater than 10 µM.
